Measurements published in patent US8846066B2, “Methods and related compositions for reduction of fat and skin tightening” (The Regents of the University of California, priority 2004, dated 2014).
“And” between values parts separate entries of the source, which are not always exact repeats. Equal entries are not always repeated.

Tests used:
CHL = assay: Killing by DC after pre-incubation with human lipoma fat, CHL; assay type: cell-based
Description: (§1) The experiment was performed on a series of immortalized melanocyte cell lines. Resected human lipomas were ground up, and DC-containing media was mixed with the human fat and agitated for 24 hours. The material was centrifuged to pellet insoluble contents. The supernatants were then added on top of cultured melanocytes. Control was the identical DC-containing media not exposed to the fat chunks. Also, fat alone (no media) was added as a control.

fat deposits = assay: Injection of deoxycholate into facial fat deposits of an HIV lipodystrophy patient; assay type: in vivo, human; settings: 1% deoxycholate, 1 month follow up, both sides
Description: An HIV lipodystrophy patient with symmetrical fat deposits in their face just vental of their master muscle (sort of in their cheeks, like acorns in the mouth of a chipmunk) was injected with 1% deoxycholate. At 1 month follow up, there was a 50% apparent reduction in deposit volume on both sides.

A375M = assay: Killing by DC after pre-incubation with human lipoma fat, A375M; assay type: cell-based
Description: as §1

SKmel28 = assay: Killing by DC after pre-incubation with human lipoma fat, SKmel28; assay type: cell-based
Description: as §1

adipocytes = assay: Adipocyte survival on addition of PC to 4.75% DC; assay type: cell-based; settings: for Average / Adipocytes surviving by adding PC to 4.75% DC: 4.75% DC; for Adipocytes surviving by adding PC to 4.75% DC: single wells
Description: FIG. 9 illustrates survival of adipocytes when phosphatidylcholine is added to 4.75% sodium deoxycholate solution. On y-axis, 1 represents 100% survival. All % concentrations are w/v %. Survival of the cells in the absence of DC and PC is on an average 0.113.

HaCaT cells = assay: Lactate dehydrogenase (LDH) release assay, cell lysis; assay type: cell-based, human; settings: for LDH release (OD 490): 30 min at 37° C.
Description: Cell lysis in response to detergent treatment was determined in HaCaT cells incubated with the reagents at the indicated cell dilutions for 30 min at 37° C. Lysis in cultured cells was measured using a lactate dehydrogenase (LDH) assay and within tissue using calcein, a fluorescent marker retained in cells with intact cell membranes. The LDH assay measures the activity of LDH, which is a cytosolic enzyme released when cells are lysed. Lactate dehydrogenase release was measured by absorbance (at 490 nm) after a 1 hour incubation with the LDH assay as recommended by the manufacturer (CytoTox 96 Non-Radioactive Cytotoxicity Assay, Promega). All studies were performed in triplicate. LDH release is directly proportional to absorbance at 490 nm (OD 490).

[1] = tested on: HaCaT human keratinocyte cells; assay: MTS cell viability assay in cultured HaCaT cells; assay type: cell-based; settings: for cell viability (MTS, OD 490): 30 min at 37° C.
Description: To measure cell viability after detergent treatment, HaCaT human keratinocyte cells were cultured in DMEM (Dulbecco's modified Eagle's medium) supplemented with 10% fetal calf serum, penicillin, and streptomycin. […] Cell viability was determined by an absorbance spectrophotometer (at 490 nm) after 4 hour incubation with the assay at 37° C. To determine cell viability in fresh tissue, fat specimens were incubated for 4 hours in 24 well plates with stock reagents and the MTS assay. Tissue specimens were then visualized for color change and the amount of MTS in their supernatants was measured by absorbance (at 490 nm). All studies were performed in triplicate. Absorbance at 490 nm (OD 490) is proportional to the number of living cells in the culture.

lipomas [2] = assay: Human lipoma study with sodium deoxycholate (Example 10); assay type: in vivo
Description: Six patients having 12 lipomas were injected with sodium deoxycholate (DC) solutions over a period of six months. […] Measurements were made by physical measurements and ultrasound imaging.

lipomas [3] = assay: Injection of DC solutions into lipomas of patients (Example 4); assay type: in vivo, human
Description: Patients having lipomas, benign, isolated collections of adipose tissue, were injected with sodium deoxycholate (DC) solutions without phosphatidylcholine directly into the lipoma. […] A lipoma from one patient, injected with 1% DC, was excised after treatment and pathological and histological analysis performed. Within the excised lipoma, necrosis is visible grossly (FIG. 6a) with a well demarcated area of hemorrhage and necrosis on the lateral edge extending into the middle of the lipoma fat which contrasts with the normal lipoma fat which is lighter in color.

WM266 = assay: Killing by DC after pre-incubation with human lipoma fat, WM266; assay type: cell-based
Description: as §1

[4] = DC 0.1% media not exposed to fat
[5] = single wells, DC 0.1% media not exposed to fat
[6] = single wells, supernatant of DC 0.1% media agitated 24 hours with human lipoma fat
[7] = supernatant of DC 0.1% media agitated 24 hours with human lipoma fat
[8] = Control = 1.000, DC 0.1% media not exposed to fat
[9] = Control = 1.000, DC 0.1% media pre-incubated with human lipoma fat
[10] = Lipoma 1, pre-treatment size 1 cm, 1 treatment
[11] = Lipoma 4, pre-treatment size 4 × 3.5 cm, 4 treatments
[12] = Lipoma 5, pre-treatment size 2 × 1.8 cm, 4 treatments
[13] = Lipoma 6, pre-treatment size 2.8 cm, 1 treatment
[14] = Lipoma 7, pre-treatment size 3 × 2 cm, 2 treatments
[15] = Lipoma 8, pre-treatment size 1 cm, 2 treatments
[16] = Lipoma 10, pre-treatment size 2 cm, 2 treatments
[17] = Lipoma 12, pre-treatment size 1 cm, 1 treatment

Q: Which results are given for C[C@H](CCC(=O)[O-])[C@H]1CC[C@H]2[C@@H]3CC[C@@H]4C[C@H](O)CC[C@]4(C)[C@H]3C[C@H](O)[C@]12C.[Na+] [DC, sodium deoxycholate]?
A: Percentage, DC 0.1% (CHL; Control = 1, DC 0.1% media not exposed to fat): 0.098; Percentage, DC 0.1% + fat (CHL; Control = 1, DC 0.1% media pre-incubated with human lipoma fat): 0.610; Average, DC 0.1% (CHL; [4]): 0.065; Actual, DC 0.1% (CHL; [5]): 0.064 and 0.066; CHL (readings), DC 0.1% (CHL; [5]): 0.064 and 0.066; Actual, DC 0.1% + fat (CHL; [6]): 0.402 and 0.426 and 0.378; CHL (readings), DC 0.1% + fat (CHL; [6]): 0.402 and 0.426 and 0.378; Average, DC 0.1% + fat (CHL; [7]): 0.402; apparent reduction in deposit volume (fat deposits): 50%; Percentage, DC 0.1% (A375M; [8]): 0.106; Percentage, DC 0.1% + fat (A375M; [9]): 0.662; Average, DC 0.1% (A375M; [4]): 0.064; A375M (readings), DC 0.1% (A375M; [5]): 0.066 and 0.063; Actual, DC 0.1% (A375M; [5]): 0.066 and 0.063; A375M (readings), DC 0.1% + fat (A375M; [6]): 0.456 and 0.382 and 0.365; Actual, DC 0.1% + fat (A375M; [6]): 0.456 and 0.382 and 0.365; Average, DC 0.1% + fat (A375M; [7]): 0.401; Percentage, DC 0.1% (SKmel28; [8]): 0.098; Percentage, DC 0.1% + fat (SKmel28; [9]): 0.485; Average, DC 0.1% (SKmel28; [4]): 0.060; Actual, DC 0.1% (SKmel28; [5]): 0.061 and 0.060; SKmel28 (readings), DC 0.1% (SKmel28; [5]): 0.061 and 0.060; Actual, DC 0.1% + fat (SKmel28; [6]): 0.290 and 0.304 and 0.302; SKmel28 (readings), DC 0.1% + fat (SKmel28; [6]): 0.290 and 0.304 and 0.302; Average, DC 0.1% + fat (SKmel28; [7]): 0.299; Average (adipocytes; PC 0 (w/v %)): 0; Average (adipocytes; PC 0.01 (w/v %)): 0; Average (adipocytes; PC 0.1 (w/v %)): 0; Average (adipocytes; PC 1 (w/v %)): 0; Average (adipocytes; PC 5 (w/v %)): 0.009; adipolysis of cultured adipocytes (adipocytes; 4.75% sodium deoxycholate, in vitro): 100%; Adipocytes surviving by adding PC to 4.75% DC (adipocytes; PC 0 (w/v %)): 0; Adipocytes surviving by adding PC to 4.75% DC (adipocytes; PC 0.01 (w/v %)): 0; Adipocytes surviving by adding PC to 4.75% DC (adipocytes; PC 0.1 (w/v %)): 0; Adipocytes surviving by adding PC to 4.75% DC (adipocytes; PC 1 (w/v %)): 0; LDH release (OD 490) (HaCaT cells; 0.005% dilution): minimal LDH release; LDH release (OD 490) (HaCaT cells; 0.05% and 0.5%): progressively more LDH released; cell lysis compared with PBF (HaCaT cells; cell culture): less cell lysis; cell lysis (LDH release, FIG. 2b) (HaCaT cells; over the tested dilutions): concentration dependent increase in cell lysis; cell viability (MTS, OD 490) ([1]; 0.005% dilution): little effect; cell viability (MTS, OD 490) ([1]; 0.05% and 0.5% concentrations): progressively decreased; viability of cultured cells (MTS, FIG. 2a) ([1]; approximately equal to the complete PBF): profoundly decreased the viability of cultured cells; Change in volume (%) (lipomas [2]; [10]): −100%; Post-treatment size (lipomas [2]; [10]): 0; Change in volume (%) (lipomas [2]; Lipoma 3, pre-treatment size 2 × 2.5 cm, 3 treatments): 84%; Change in volume (%) (lipomas [2]; [11]): 84%; Post-treatment size (lipomas [2]; [11]): 2; Change in volume (%) (lipomas [2]; [12]): 92%; Post-treatment size (lipomas [2]; [12]): 1.3; Change in volume (%) (lipomas [2]; [13]): 99%; Post-treatment size (lipomas [2]; [13]): 0.5; Change in volume (%) (lipomas [2]; [14]): 97%; Post-treatment size (lipomas [2]; [14]): 0.8; Change in volume (%) (lipomas [2]; [15]): 100%; Post-treatment size (lipomas [2]; [15]): 0; Change in volume (%) (lipomas [2]; Lipoma 9, pre-treatment size 2 × 1 cm, 2 treatments): 67%; Change in volume (%) (lipomas [2]; [16]): 73%; Post-treatment size (lipomas [2]; [16]): 1.3; Change in volume (%) (lipomas [2]; Lipoma 11, pre-treatment size 2 cm, 1 treatment): 79%; Change in volume (%) (lipomas [2]; [17]): 50%; Post-treatment size (lipomas [2]; [17]): 0.8; size of injected lipomas (lipomas [2]; six patients, 12 lipomas, after at least one treatment, six months): reduced in size; Size(cm) Post-treatment (lipomas [3]; Lipoma 5, pre-treatment 2.00 × 1.75, 2 treatments (1% DC)): 1.25 cm; Size(cm) Post-treatment (lipomas [3]; Lipoma 6, pre-treatment 2.80, 1 treatment (5% DC)): 0.50 cm; Size(cm) Post-treatment (lipomas [3]; Lipoma 7, pre-treatment 1.00, 1 treatment (1% DC)): Imperceptible; size of injected lipomas (lipomas [3]; after at least one treatment, varied concentrations of deoxycholate): reduced in size; pathology and histology of excised lipoma (lipomas [3]; one patient, 1% DC, removed two days after injection): well defined area of hemorrhage and necrotic fat; Percentage, DC 0.1% (WM266; [8]): 0.113; Percentage, DC 0.1% + fat (WM266; [9]): 0.539; Average, DC 0.1% (WM266; [4]): 0.063; Actual, DC 0.1% (WM266; [5]): 0.07 and 0.061 and 0.058; WM266 (readings), DC 0.1% (WM266; [5]): 0.07 and 0.061 and 0.058; Actual, DC 0.1% + fat (WM266; [6]): 0.281 and 0.308 and 0.314; WM266 (readings), DC 0.1% + fat (WM266; [6]): 0.281 and 0.308 and 0.314; Average, DC 0.1% + fat (WM266; [7]): 0.301
